Data set [1] can be described thus: blood concentration in vivo of New Zealand rabbits after implantation or oral dose. As to the method:
New Zealand rabbits within 10 weeks after the implantation. […] The blood concentrations of subjects were measured per 2 weeks, and the trend in vivo matched the release in vitro despite the few of data points. […] New Zealand rabbits within 10 weeks after the implantation. […] The blood concentrations of subjects were measured per 2 weeks, and the trend in vivo matched the release in vitro despite the few of data points. […] It can be seen from the FIG. that the blood concentration in vivo is consistent with the release in vitro trend, thus the treatment in vivo can be adjusted by the release in vitro. The following table gives a comparison of a relationship between the oral dose and the blood concentration in vivo and another relationship between the released drug of the elastic sheet and the blood concentration in vivo: Following table 10 gives a comparison of a relationship between the oral dose and the blood concentration in vivo and another relationship between the released drug of the elastic sheet and the blood concentration in vivo: […]

A short description of data set [2]: blood concentration in vivo of subjects after implantation or oral dose. As to the method: The blood concentrations of subjects were measured per 2 weeks, and the trend in vivo matched the release in vitro despite the few of data points.
It can be seen from the FIG. that the blood concentration in vivo is consistent with the release in vitro trend, thus the treatment in vivo can be adjusted by the release in vitro.
The following table gives a comparison of a relationship between the oral dose and the blood concentration in vivo and another relationship between the released drug of the elastic sheet and the blood concentration in vivo: […]

The conditions of data set [3]: cited from earlier work.

Structures are written as SMILES.

For `C[C@]12CC[C@@H]3c4ccc(O)cc4CC[C@H]3[C@@H]1CC[C@@H]2O` [estradiol], the Blood concentration in data set [1] (Oral dose 1000 μg/d) came to 0.1112 nM; in data set [1] (Oral dose 2000 μg/d), 0.2558 nM; in data set [1] (Oral dose 3000 μg/d) it was 0.4985 nM; in data set [2] (Oral dose 1000 μg/d) it was 0.1112 nM; in data set [2] (Oral dose 2000 μg/d), 0.2558 nM; in data set [2] (Oral dose 3000 μg/d), 0.4985 nM. This compound yielded a Blood concentration in data set [2] (Oral dose 4000 μg/d) of 0.9893 nM.
Turning to `CCCCC(=O)O[C@H]1CC[C@H]2[C@@H]3CCc4cc(O)ccc4[C@H]3CC[C@]12C` [estradiol valerate], the “increase of the serum concentration of estradiol (E2)” value in data set [3] (oral administration of 4 mg (2 mg bid)) is 211.89 ± 57.40 pg/mL. Also, the “absorption effect of vaginal administration relative to oral administration” value in data set [3] (vaginal versus oral) is listed as 4 to 8 times.

Values taken from patent publication US12427106B2, “Elastic sheet with function of re-activating endometrial basal layer in uterine cavity and forming method thereof” (YIPURUN (SHANGHAI) BIOTECHNOLOGY CO., LTD., priority 2018, dated 2025).
